Assay results taken from patent US20220154184A1, “INCREASING GENOME STABILITY AND REPROGRAMMING EFFICIENCY OF INDUCED PLURIPOTENT STEM CELLS” (THE TRUSTEES OF COLUMBIA UNIVERSITY IN THE CITY OF NEW YORK, priority 2019, published 2022).

How the values were obtained:
[1] = test system: mouse embryonic fibroblasts (MEFs); experiment: OSKM reprogramming of MEFs with drug treatment, alkaline phosphatase (AP) staining / sensitivity score; format: cell-based
Description: For infection, P1 mouse embryonic fibroblasts (MEFs) were thawed and plated at 1×10^6 cells per 10 cm dish on the previous day. Infection proceeded in two rounds with 8 h to 9 h in between. Briefly, cells were incubated with an OSKM/rtta virus mix (1:1), supplemented with 8 ug/ml protamine sulfate (Fisher Scientific #0219472905). The infection mix was removed on the following day and cells were left to recover in fresh MEF media (DMEM HG Thermo Fisher Scientific #10569010 with 10% FBS Atlanta Biologicals #S11150, Glutamax Thermo Fisher Scientific #35050079 and PenStrep Thermo Fisher Scientific 15140163).
Two days after infection, cells were re-plated for transduction efficiency assessment on day 3, molecular analyses on day 5, colony picking on day 16 and alkaline phosphatase (AP) staining on day 20. In each experiment, infected fibroblasts from the different genotypes were replated at multiple densities to allow for optimal reprogramming efficiency. For wild-type cells, 100-300 cells/mm^2 (20-60K per well of a 24 w dish) routinely generated high numbers of iPS cell clones. Besides for wild-type, 20-60K per well of a 24 w dish was also optimal for the Bard1 point mutants, Brca1^tr/+ and all combination mutations with Smarcal1 or 53bp1; Brca1^tr/tr, 53bp1^−/− as well as the heterozygous or homozygous Smarcal1 and 53bp1 single mutants. […] The remaining Brca1^tr/tr53BP1^+/− genotype was re-plated at 450 cells/mm^2 (90K/well of a 24 w dish). These seeding densities were later used to calculate the reprogramming efficiency of each genotype. The OSKM reprogramming factors were induced with 1 ug/ml doxycycline (Sigma #D9891) in mouse embryonic stem (mES) cell media, consisting of Knockout DMEM (Life Technologies #10829-018), supplemented with 15% Knockout Serum Replacement (Life Technologies #10828-028), Glutamax (Thermo Fisher Scientific #35050079), MEM NEAA (Life Technologies #11140050), PenStrep (Thermo Fisher Scientific 15140163), 2-mercaptoetahnol (Life Technologies #21985-023) and […] LIF (eBioscience #34-8521-82). Transduction efficiency was determined on reprogramming day 3 by staining for Sox2 (Stemgent #09-0024) and used in the calculation of reprograming efficiency. The reprogramming experiments with drug treatment used aphidicolin (Sigma #A0781) at 0.2 uM, Ttpotecan (Sigma #T2705) at 10 nM or the DNA PK inhibitor NU7026 (Tocris #2828) at 5 uM for 8 days during reprogramming.
Alternatively, for the induction of two-ended DSBs, cells were subjected to a single dose of 6 Gy IR 1 day post doxycycline-mediated OSKM factor induction. Cells were fixed on reprogramming day 18-20 and stained for alkaline phosphatase with the Vector Red detection kit (Vector Laboratories #SK-5100). Reprogramming efficiency was determined by considering the number of AP-positive colonies per number of infected cells, determined by Sox2 staining at the optimal plating density for each genotype. The sensitivity score in the experiments with aphidicolin, topotecan and IR was calculated as follows: the reprogramming efficiency of wild-type treated cells was determined as described above and normalized to the reprogramming efficiency of wild type untreated cells. The same procedure was applied to each mutant genotype. The sensitivity score was obtained by calculating the ratio of treated wild type (normalized to untreated wild type) to treated mutant (normalized to untreated mutant). A large score corresponds to high sensitivity.

[2] = test system: wild-type uninfected MEFs; experiment: 53bp1 foci immunofluorescence in uninfected fibroblasts treated with aphidicolin; format: cell-based, mouse; conditions: 0.2 uM aphidicolin for 3 days
Description: Detection of […], phospho RPA(S33) and 53bp1 was performed on reprogramming D5 with the following antibodies: Phospho-RPA2Ser33 (Invitrogen #PA5-39809); Anti-phosphoHistone H2A.X-Ser139 (Millipore #05-636); and 53BP1 Antibody H-300 (Santa Cruz #22760). For detection of Rad51, iPS cell lines were irradiated with 10 Gy and stained with Rad51 (Ab-1) Rabbit pAb (Millipore #PC130) 1.5 h post IR.
The DNA damage observed in the form of phosphorylated H2AX during reprogramming can be the result of global epigenetic remodeling (Hernandez et al., 2018), oxidative stress (Ji et al., 2014) or elevated replication stress (Ruiz et al., 2015). To determine the specific type of DNA damage which is most limiting to iPS cell generation, mouse embryonic fibroblasts (MEFs) were treated during reprogramming with the DNA polymerase inhibitor aphidicolin, which induces one-ended double strand breaks (DSBs), processed by HDR (Rothkamm et al., 2003). To test the effect of aphidicolin on primary cells, uninfected wild type fibroblasts were incubated with 0.2 uM aphidicolin for 3 days and noted an increase in the numbers of 53bp1 foci (FIG. 4B).

Question: How did the efficiency of reprogramming ([1]; wild type MEFs, 5 uM DNA PK inhibitor for 8 days during reprogramming) turn out when `O=c1cc(N2CCOCC2)oc2c1ccc1ccccc12` [DNA PK inhibitor, NU7026] was run?
Answer: no effect

Question: How did the “numbers of 53bp1 foci” value [2] turn out when `C[C@@]1(CO)[C@H](O)CC[C@@]2(C)[C@H]1CC[C@H]1C[C@@H]3C[C@@]12CC[C@]3(O)CO` [aphidicolin] was run?
Answer: increase

Question: And the sensitivity of reprogramming ([1]; 53bp1^-/- mutants, 0.2 uM aphidicolin for 8 days during reprogramming)?
Answer: less sensitive

Question: And the “reprogramming efficiency compared to the Brca1^tr/tr genotype” value ([1]; Brca1^tr/tr53bp1^-/- cells, 0.2 uM aphidicolin for 8 days during reprogramming)?
Answer: improvement of reprogramming efficiency

Question: What about the “sensitivity of reprogramming (colony numbers relative to wild-type)” value ([1]; Brca1^tr/tr cells, 0.2 uM aphidicolin for 8 days during reprogramming) of the same compound?
Answer: pronounced sensitivity

Question: And the reprogramming efficiency ([1]; wild type cells, 0.2 uM aphidicolin for 8 days during reprogramming)?
Answer: reduced the efficiency of the process

Question: `CC[C@@]1(O)C(=O)OCc2c1cc1n(c2=O)Cc2cc3c(CN(C)C)c(O)ccc3nc2-1` [topotecan] was tested. Which sensitivity of reprogramming ([1]; 53bp1 null cells, 10 nM topotecan for 8 days during reprogramming) did it give?
Answer: reduced sensitivity

Question: What about the sensitivity of reprogramming ([1]; Brca1^tr/tr53bp1^-/- cells, 10 nM topotecan for 8 days during reprogramming) of the same compound?
Answer: mild sensitivity

Question: What about the reprogramming efficiency ([1]; Brca1^tr/tr cells, 10 nM topotecan for 8 days during reprogramming) of the same compound?
Answer: greatly reduced efficiency

Question: What about the sensitivity of reprogramming ([1]; wild-type cells, 10 nM topotecan for 8 days during reprogramming) of the same compound?
Answer: barely sensitive
